# Measurements taken from patent publication US8246943B2, “Prebiotic composition” (Conopco, Inc., priority 2009, dated 2012).
# Several values for one entry are separate records, joined by “and”; a condition that tells them apart may be missing. Equal values may be shown once.
# What was measured:
# [1] = test system: Clostridia (C. histolyticum and C. perfringens); format: cell-based
# Bifidobacteria [2] = assay: 3 stage in vitro gut model, bacterial populations; format: cell-based
# bifidobacteria [3] = details: background statement; cited from earlier work
# Bacteroides = assay: 3 stage in vitro gut model, bacterial populations; format: cell-based
# [4] = test system: Eubacterium rectale and Clostridium coccoides; assay: 3 stage in vitro gut model, bacterial populations; format: cell-based
# [5] = prebiotic effect of black tea flavonoid components (test not described); details: statement in the description, no test given
# [6] = SS1 (steady state without test substrate), vessel 1
# [7] = SS1 (steady state without test substrate), vessel 2
# [8] = SS1 (steady state without test substrate), vessel 3
# [9] = SS2 (steady state with substrate added daily), vessel 1
# [10] = SS2 (steady state with substrate added daily), vessel 2
# [11] = SS2 (steady state with substrate added daily), vessel 3
substance,measurement,setting,value
Inulin,Clostridia (C. histolyticum and C. perfringens) population,[1],5.67 Log 10 cells/ml of culture fluid and 5.84 Log 10 cells/ml of culture fluid and 5.49 Log 10 cells/ml of culture fluid and 5.89 Log 10 cells/ml of culture fluid and 5.59 Log 10 cells/ml of culture fluid
same,Bifidobacteria population,Bifidobacteria [2]; [6],7.62 Log 10 cells/ml of culture fluid
same,Bifidobacteria population,Bifidobacteria [2]; [7],7.52 Log 10 cells/ml of culture fluid
same,Bifidobacteria population,Bifidobacteria [2]; [8],7.49 Log 10 cells/ml of culture fluid
same,prebiotic effect in gut model (in words),"Bifidobacteria [2]; SS1 vs SS2, 1.33 g digested black tea solids per day (2.40 g before digestion), 5 g/day inulin",achieved a similar effect
same,Bifidobacteria population,Bifidobacteria [2]; [9],8.45 Log 10 cells/ml of culture fluid
same,Bifidobacteria population,Bifidobacteria [2]; [10],8.26 Log 10 cells/ml of culture fluid
same,Bifidobacteria population,Bifidobacteria [2]; [11],8.15 Log 10 cells/ml of culture fluid
same,bifidobacteria in humans,bifidobacteria [3],significantly increase bifidobacteria
same,Bacteroides population,Bacteroides; [6],7.23 Log 10 cells/ml of culture fluid
same,Bacteroides population,Bacteroides; [7],8.53 Log 10 cells/ml of culture fluid
same,Bacteroides population,Bacteroides; [8],8.35 Log 10 cells/ml of culture fluid
same,Bacteroides population,Bacteroides; [9],6.36 Log 10 cells/ml of culture fluid
same,Bacteroides population,Bacteroides; [10],8.81 Log 10 cells/ml of culture fluid
same,Bacteroides population,Bacteroides; [11],8.55 Log 10 cells/ml of culture fluid
same,Eubacterium rectale and Clostridium coccoides population,[4]; [6],9.14 Log 10 cells/ml of culture fluid
same,Eubacterium rectale and Clostridium coccoides population,[4]; [7],9.19 Log 10 cells/ml of culture fluid
same,Eubacterium rectale and Clostridium coccoides population,[4]; [8],9.17 Log 10 cells/ml of culture fluid
same,Eubacterium rectale and Clostridium coccoides population,[4]; [9],9.37 Log 10 cells/ml of culture fluid
same,Eubacterium rectale and Clostridium coccoides population,[4]; [10],9.28 Log 10 cells/ml of culture fluid
same,Eubacterium rectale and Clostridium coccoides population,[4]; [11],9.20 Log 10 cells/ml of culture fluid
catechins,prebiotic effect (in words),[5],appear to reduce the prebiotic effect of thearubigins
fructo-oligosaccharides,bifidobacteria in humans,bifidobacteria [3],significantly increase bifidobacteria
theaflavins,prebiotic effect (in words),[5],little or no prebiotic effect
